Assay results as given in ChEMBL document CHEMBL1149052, “Pentacyclic triterpenes derived from Maprounea africana are potent inhibitors of HIV-1 reverse transcriptase” (J Nat Prod, 1994).
One block for each compound: values may come before it.

Columns and labels:
[1] = target: Human immunodeficiency virus type 1 reverse transcriptase (Human immunodeficiency virus 1, UniProt Q72547); assay: Inhibition of HIV1 reverse transcriptase
[2] = Inhibition of HIV2 reverse transcriptase; set-up: species or system Human immunodeficiency virus 2

SMILES: CC1(C)CC[C@]2(C(=O)O)CC=C3[C@]4(C)CC[C@H]5C(C)(C)[C@@H](O)C[C@@H](O)[C@]5(C)[C@H]4CC[C@@]3(C)[C@@H]2C1
IC50 [1]: 4.9 µM
IC50 [2]: 53.1 µM

SMILES: CC(=O)O[C@H]1CC[C@]2(C)[C@H]3CC[C@]4(C)C(=CC[C@@]5(C(=O)O)CCC(C)(C)C[C@H]54)[C@]3(C)CC[C@H]2C1(C)C [ACETYL ALEURITOLIC ACID]
IC50 [1]: 136 µM
IC50 [2]: > 200 µM

SMILES: COc1cc2c(ccc3c4cc(OC)c(OC)cc4c[n+](C)c23)cc1O [FAGARONINE]
IC50 [1]: 13 µM

SMILES: CC1(C)CC[C@]2(C(=O)O)CC=C3[C@]4(C)CC[C@H]5C(C)(C)[C@@H](O)[C@H](O)C[C@]5(C)[C@H]4CC[C@@]3(C)[C@@H]2C1
IC50 [1]: 3.4 µM
IC50 [2]: 56.7 µM

Now from value to compound:

IC50 [1]: 3.7 µM
IC50 [2]: 28.9 µM
SMILES: CC1(C)CC[C@]2(C(=O)O)CC=C3[C@]4(C)CC[C@H]5C(C)(C)[C@@H](OC(=O)c6ccc(O)cc6)[C@H](OC(=O)c6ccc(O)cc6)C[C@]5(C)[C@H]4CC[C@@]3(C)[C@@H]2C1

IC50 [1]: 3.7 µM
IC50 [2]: 59 µM
SMILES: CC1(C)CC[C@]2(C(=O)O)CC=C3[C@]4(C)CC[C@H]5C(C)(C)[C@@H](OC(=O)c6ccc(O)cc6)C[C@@H](O)[C@]5(C)[C@H]4CC[C@@]3(C)[C@@H]2C1

IC50 [1]: 24.9 µM
IC50 [2]: 78.7 µM
SMILES: CC1(C)CC[C@]2(C(=O)O)CC=C3[C@]4(C)CC[C@H]5C(C)(C)[C@@H](O)CC[C@]5(C)[C@H]4CC[C@@]3(C)[C@@H]2C1 [ALEURITOLIC ACID]

IC50 [1]: 14 µM
SMILES: CC[C@H]1CN2CCc3cc(OC)c(OC)cc3[C@@H]2C[C@@H]1CC1=NCCc2cc(OC)c(OC)cc21
